Read-outs that look alike come from different tables or passages of the source. 5‑FAM = 5-carboxyfluorescein (5-FAM) label at the N-terminus

Holding throughout (format): biochemical
The target in assay [1] is T1, Factor XIa (Homo sapiens, UniProt P03951). The assay can be described thus: Factor XIa inhibition assay utilizing a fluorophore-quencher pair peptide substrate (FLINT, kinetic read). The settings on record: peptide substrate cleaved by FXIa; fit to a substrate inhibition model.
For assay [2], the target named is T1, Factor XIa. Described as above. Particulars: read-out: FXIa KIN Inh IC50. An excerpt:
Biological Example 1: Factor XIa Inhibition Assay Utilizing a Fluorophore-Quencher Pair Peptide Substrate A fluorescence intensity (FLINT) based assay was used to monitor inhibition of Factor XIa. The peptide substrate, 5Fam-[…]-K5Tamra (purchased from New England Peptide) was chosen based on the FXI sequence. Conversion of zymogen FXI to its activated form, FXIa, occurs by proteolytic cleavage by […] at two sites, Arg146 and Arg180. The custom peptide used in this assay was based on the Arg146 cleavage site of FXI. The peptide substrate was designed with a fluorophore-quencher pair, where the fluorescence is quenched until FXIa cleaves the 8-mer peptide after the Arg residue.
The 2× Factor XIa stock solution was prepared by diluting 6.562 μM stock in 1× assay buffer for a […].
Test compound(s) were run in an 11-point, 3-fold serial dilution with a final top compound concentration of 100 nM. Final DMSO in assay was 2%. FXIa was preincubated with compound for 30-minutes and then substrate was added to initiate the reaction. The assay was run with kinetic (KIN) reads at 5 min intervals over 30 minutes. […] More specifically, the assay was run as follows: • 100 nL of 0.01 mM test compound was dispensed into black 384-well non-binding Greiner BioOne 784900 plate for 0.1 μM final concentration; • 5 μL of 1× assay buffer was dispensed to column 24 (low control) and 5 μL 2× Factor XIa solution was dispensed to columns 1-23 (column 23 high control); • the plate was centrifuged with a “cover” plate at 500 rpm for 1 min • the plate was pre-incubated for 30 minutes at room temperature with plate covered; • 5 μL of 2× 5Fam-[…]-K5Tamra peptide substrate was dispensed into the entire plate, columns 1-24; • the plate was centrifuged with a “cover” plate at 500 rpm for 1 min; • the plate was read monitoring fluorescence intensity on the BMG PHERAStar at room temperature, using fluorescence module 485 nm/520 nm.
Percent inhibition (IC50) curves were generated per compound tested, and data was analyzed using a 4-parameter logistic fit using GeneData Screener. The relative fluorescence unit (RFU) values were normalized to percent inhibition using the following equation:
% inhibition=((HC−LC)−(compound−LC)/(HC−LC))*100 where LC—low control=mean signal of no Factor XIa or 100% inhibition of Factor XIa; HC—high control=mean signal of Factor XIa+5Fam-[…]-K5Tamra peptide substrate with DMSO only.
An 11-point dose response curve for the test compound(s) was generated using GENDATA to determine IC50 value based on the following equation:
Y=Bottom+(Top−Bottom)/(1+10^((log IC50−X)*HillSlope)) where Y is the % inhibition in the presence of X inhibitor concentration, Top=high control=mean signal of Factor XIa+5Fam-[…]-K5Tamra peptide substrate with DMSO only; Bottom=low control−mean signal of no Factor XIa or 100% inhibition of Factor XIa; HillSlope—Hill coefficient; and IC50=concentration of compound with 50% inhibition in relation to top/high control.

The target in another assay is human plasma kallikrein (Homo sapiens, UniProt P03952). The assay can be described thus: Kallikrein inhibition assay utilizing a quenched AMC peptide substrate (FLINT, kinetic read). Particulars: read-out: Kallikrein KIN Inh IC50.
human plasma kallikrein, sequence (P03952 391-638 limits assumed): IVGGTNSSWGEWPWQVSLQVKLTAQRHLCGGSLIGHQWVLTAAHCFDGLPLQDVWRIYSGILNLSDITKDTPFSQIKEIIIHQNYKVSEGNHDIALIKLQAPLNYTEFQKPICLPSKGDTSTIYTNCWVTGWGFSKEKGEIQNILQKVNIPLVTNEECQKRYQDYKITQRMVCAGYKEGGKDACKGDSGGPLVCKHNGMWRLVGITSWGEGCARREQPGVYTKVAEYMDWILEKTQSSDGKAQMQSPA
human plasma kallikrein, sequence (P03952 20-390 partner limits assumed): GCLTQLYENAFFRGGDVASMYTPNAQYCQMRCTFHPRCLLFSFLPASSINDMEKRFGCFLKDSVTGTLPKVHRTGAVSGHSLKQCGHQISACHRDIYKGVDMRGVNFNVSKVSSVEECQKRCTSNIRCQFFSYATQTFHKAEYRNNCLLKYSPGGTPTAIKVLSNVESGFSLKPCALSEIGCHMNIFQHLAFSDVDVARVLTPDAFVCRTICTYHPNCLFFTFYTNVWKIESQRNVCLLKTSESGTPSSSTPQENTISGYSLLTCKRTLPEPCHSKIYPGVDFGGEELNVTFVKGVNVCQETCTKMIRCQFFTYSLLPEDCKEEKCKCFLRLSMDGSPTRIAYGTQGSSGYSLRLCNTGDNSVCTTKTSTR

T1 sequence (P03951 388-625 limits assumed): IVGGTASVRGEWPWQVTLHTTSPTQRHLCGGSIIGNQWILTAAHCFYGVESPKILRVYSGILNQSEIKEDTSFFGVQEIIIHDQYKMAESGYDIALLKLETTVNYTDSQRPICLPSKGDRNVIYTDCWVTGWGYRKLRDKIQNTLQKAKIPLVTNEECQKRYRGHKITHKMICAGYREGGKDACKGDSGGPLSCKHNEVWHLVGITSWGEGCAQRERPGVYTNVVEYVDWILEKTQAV
T1 sequence (P03951 19-387 partner limits assumed): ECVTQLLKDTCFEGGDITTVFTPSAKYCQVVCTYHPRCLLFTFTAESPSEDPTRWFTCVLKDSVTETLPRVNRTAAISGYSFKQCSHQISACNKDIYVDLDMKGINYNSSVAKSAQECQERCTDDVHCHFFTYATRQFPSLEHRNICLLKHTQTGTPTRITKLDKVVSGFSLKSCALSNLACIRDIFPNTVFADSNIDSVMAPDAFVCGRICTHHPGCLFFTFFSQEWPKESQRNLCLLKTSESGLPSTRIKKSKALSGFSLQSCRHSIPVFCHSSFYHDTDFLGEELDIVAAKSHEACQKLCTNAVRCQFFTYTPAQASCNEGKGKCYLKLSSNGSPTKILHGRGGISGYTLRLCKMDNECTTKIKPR

By Km is commonly meant the concentration of substrate that gives half-maximal velocity. The term kcat denotes the maximal rate divided by the concentration of active sites. “5Fam-KLTRAETV-K5Tamra ({5‑FAM}-KLTRAETVK-{5‑TAMRA}) ["The peptide substrate ... designed with a fluorophore-quencher pair", "based on the Arg146 cleavage site of FXI", purchased from New England Peptide]”: in the assay with Factor XIa [1], the Ki was 61600 nM, the Km was found to be 12.4 µM and the turnover number (kcat) is 0.86 s⁻¹.

One may read the IC50 as the concentration that gives 50% inhibition. Turning to `C[C@H]1C[C@@H](c2[nH]c(-c3ccc(N)nc3F)nc2F)n2c1cc(-c1c(-n3cnnn3)ccc(Cl)c1F)cc2=O` (relative stereo) [Example 35, (1*S,3*S)-3-(2-(6-Amino-2-fluoropyridin-3-yl)-4-fluoro-1H-imidazol-5-yl)-7-(3-chloro-2-fluoro-6-(1H-tetrazol-1-yl)phenyl)-1-methyl-2,3-dihydroindolizin-5(1H)-one], the IC50 on Factor XIa [2] (values in nM) was about 610 nM; at human plasma kallikrein (values given with μM), 9.8 µM.

Consider `C[C@H]1C[C@H](c2ncc(-c3ccc(N)nc3Cl)[nH]2)n2c1cc(-c1c(-n3cnnn3)ccc(Cl)c1F)cc2=O` (relative stereo) [Example 37, (1*S,3*R)-3-(5-(6-Amino-2-chloropyridin-3-yl)-1H-imidazol-2-yl)-7-(3-chloro-2-fluoro-6-(1H-tetrazol-1-yl)phenyl)-1-methyl-2,3-dihydroindolizin-5(1H)-one], for which the values for the IC50 at Factor XIa [2] (values in nM) and at human plasma kallikrein (values given with μM) were 283 nM and 7.8 µM, respectively.

Turning to `C[C@H]1C[C@@H](c2ncc(-c3ccnc(CN)c3)[nH]2)n2c1cc(-c1c(-n3cnnn3)ccc(Cl)c1F)cc2=O` (relative stereo) [Example 39, (1*S,3*S)-3-(5-(2-(Aminomethyl)pyridin-4-yl)-1H-imidazol-2-yl)-7-(3-chloro-2-fluoro-6-(1H-tetrazol-1-yl)phenyl)-1-methyl-2,3-dihydroindolizin-5(1H)-one], the IC50 at Factor XIa [2] (values given with μM) is 6600 nM.

As for `C[C@H]1C[C@@H](c2ncc(-c3ccnn3C)[nH]2)n2c1nc(-c1c(-n3cnnn3)ccc(Cl)c1F)cc2=O` (relative stereo) [Example 146, (6*S,8*S)-2-(3-Chloro-2-fluoro-6-(1H-tetrazol-1-yl)phenyl)-8-methyl-6-(5-(1-methyl-1H-pyrazol-5-yl)-1H-imidazol-2-yl)-7,8-dihydropyrrolo[1,2-a]pyrimidin-4(6H)-one], the IC50 at Factor XIa [2] (values in nM) is 9 nM; on human plasma kallikrein (values in nM) it was 0.296 µM.

Regarding `C[C@H]1C[C@@H](c2ncc(-c3ccc(N)nc3F)[nH]2)n2c1nc(-c1c(-n3cnnn3)ccc(Cl)c1F)cc2=O` (relative stereo) [Example 149, (6*S,8*S)-6-(5-(6-Amino-2-fluoropyridin-3-yl)-1H-imidazol-2-yl)-2-(3-chloro-2-fluoro-6-(1H-tetrazol-1-yl)phenyl)-8-methyl-7,8-dihydropyrrolo[1,2-a]pyrimidin-4(6H)-one], the IC50 on Factor XIa [2] (values in nM) came out at 0.3 nM; on human plasma kallikrein (values in nM) it was 0.0235 µM.

As to `Nc1ccc(-c2cnc([C@H]3CC4(CC4)c4cc(-c5cc(Cl)ccc5-n5cnnn5)cc(=O)n43)[nH]2)c(F)n1` (single isomer, unassigned) [Example 3], the figures for the IC50 at Factor XIa [2] (values in nM) and at human plasma kallikrein (values in nM) were 2.7 nM and 0.0392 µM, respectively.

Turning to `CC1C[C@@H](c2ncc(-c3cnns3)[nH]2)n2c1nc(-c1c(-n3cnnn3)ccc(Cl)c1F)cc2=O` (stereo in doubt) [Example 110, (6*S)-6-(5-(1,2,3-Thiadiazol-5-yl)-1H-imidazol-2-yl)-2-(3-chloro-2-fluoro-6-(1H-tetrazol-1-yl)phenyl)-8-methyl-7,8-dihydropyrrolo[1,2-a]pyrimidin-4(6H)-one], the IC50 on Factor XIa [2] (values in nM) was determined as 92.1 nM; on human plasma kallikrein (values given with μM) it was 2.3 µM.

Source of the values: US20230183233A1, “Bicyclic Pyridin-2-one and pyrimidin-4-one Derivatives Useful As a Factor XIa Inhibitors” (Janssen Pharmaceutica NV, priority 2021, published 2023).
